Test results published in article PMC7187627 (Antimicrobial Agents and Chemotherapy, 2019).
Entries after “also recorded” stand apart in the source; their conditions may differ. Like-named read-outs stand apart in the source and are kept apart here.

Experiment: Plasma pharmacokinetics, multiple-ascending-dose phase 1 study
Assay type: in vivo, human
Conditions: for RAUC (accumulation ratio for AUC) / RCmax (accumulation ratio for Cmax): day 10 vs day 1; for half-life / Cmax / Vd/F / Tmax / AUC(0-t) / AUC: human, plasma; for Vd/F: read-out: Vz/F,ss
Experimental: This study was conducted in full accordance with the Declaration of Helsinki and good clinical practices (GCP) at Quintiles Phase One Services in Overland Park, KS. Subjects were randomized in a 4:1 fashion (8 active:2 placebo) in each cohort to receive 200 mg, 400 mg, or 600 mg of CRS3123 or matching placebo every 12 h for 10 days (https://clinicaltrials.gov/ct2/show/NCT02106338). Subjects fasted 1 h before and 2 h after administration of the study product with a minimum of 8 oz. (240 ml) of water. Water and noncaffeinated drinks (except grapefruit juice) during the study were not restricted. Informed consent was obtained before any study-related procedures and clinical evaluations were performed. All 30 randomized subjects completed the study; 24 subjects received CRS3123 and 6 subjects received placebo. There were no premature withdrawals or discontinuations.
After a screening period of up to 35 days, eligible subjects were admitted to the study center for baseline evaluations on day −1. On the morning of day 1, eligible subjects were randomized to receive either the study drug or placebo orally every 12 h through day 10. Subjects remained inpatient at the study center until discharge on day 12. During the inpatient period, subjects were monitored for safety and pharmacokinetics (PK). Subjects were followed for 2 additional outpatient visits at the study center, on days 18 ± 2 and 29 ± 2.
PK method development, validation, and sample testing for plasma, feces, and urine were performed at KCAS, LLC (Shawnee, KS). Plasma, urine, and fecal concentrations of CRS3123 were determined by means of validated, sensitive, and specific high-performance liquid chromatography/tandem mass spectrometric (HPLC-MS/MS) assays. The lower limits of quantification of CRS3123 in plasma, feces, and urine were 10.0 ng/ml, 60.0 ng/g, and 100.0 ng/ml, respectively. The validated urine PK assay measured total free CSR3123. Since the majority of urinary CRS3123 was excreted as glucuronide conjugates ([32]), an enzymatic cleavage step using glucuronidase was added to the process to convert the glucuronide conjugates to free CRS3123 for the urine analysis.
The PK population consisted of all subjects who received active study drug (CRS3123) and had at least one measured CRS3123 concentration at a scheduled PK time point after the start of study drug administration.
Pharmacokinetic parameters for plasma were derived using noncompartmental methods with Phoenix WinNonlin version 6.4 (Pharsight Corporation, Certara L.P., Princeton, NJ). PK parameters for urine and feces were derived using SAS version 9.4 (SAS Institute, Inc., Cary, NC). All statistical calculations and reporting were performed using SAS version 9.4. Graphics were prepared with SAS version 9.4 or SigmaPlot 12.5 (Systat Software, Inc., San Jose, CA).
(i) Plasma PK. Plasma concentrations of CRS3123 throughout the 12-h dosing interval on PK days (day 1 and day 10) were summarized using descriptive statistics for each treatment.
One-way analysis of variance (ANOVA) models were used to assess any differences in appropriate PK parameters between adjacent dose levels following a single dose (day 1) and multiple doses (day 10). An ANOVA model on the log-transformed PK parameters (AUC0–12 and Cmax on day 1; AUC0–tau and Cmax on day 10) with fixed effect for treatment was performed separately for the single-dose analysis and multiple-dose analysis. From these models, the least-squares (LS) means together with 95% confidence intervals (Cis) for each dose and the LS means with corresponding 90% CIs for all adjacent dose pairs were calculated. Transformed back from the logarithmic scale, geometric LS means with corresponding 90% CIs were provided for each dose and adjacent dose ratios following both single and multiple dosing. PK accumulation was presented using descriptive statistics, and achievement of steady state was assessed graphically. […]

[1] = 200 mg Q12h, day 10, geometric mean
[2] = 400 mg Q12h, day 10, geometric mean
[3] = 600 mg Q12h, day 10, geometric mean

SMILES: O=c1cc(NCCCN[C@@H]2CCOc3c(Br)cc(Br)cc32)[nH]c2ccsc12 [CRS3123]
- CL/F,ss [1]: 80.2 L/h
- Plasma Cmin,ss [1]: 85.2 ng/mL
- CL/F,ss (200 mg Q12h, day 10, median): 82.0 L/h
- Plasma Cmin,ss (200 mg Q12h, day 10, median): 76.2 ng/mL
- RAUC (accumulation ratio for AUC) (200 mg Q12h, geometric mean): 1.61
- RCmax (accumulation ratio for Cmax) (200 mg Q12h, geometric mean): 1.34
- RAUC (accumulation ratio for AUC) (200 mg Q12h, median): 1.54
- RCmax (accumulation ratio for Cmax) (200 mg Q12h, median): 1.11
- Plasma t1/2 (200 mg Q12h oral, day 1, median (minimum, maximum)): 3.0 (2.7, 3.7) h
- Plasma t1/2,ss (200 mg Q12h oral, day 10, median (minimum, maximum)): 4.6 (4.1, 7.0) h
- CL/F,ss [2]: 125 L/h
- Plasma Cmin,ss [2]: 112 ng/mL
- CL/F,ss (400 mg Q12h, day 10, median): 121 L/h
- Plasma Cmin,ss (400 mg Q12h, day 10, median): 122 ng/mL
- RAUC (accumulation ratio for AUC) (400 mg Q12h, geometric mean): 1.37
- RCmax (accumulation ratio for Cmax) (400 mg Q12h, geometric mean): 1.22
- RAUC (accumulation ratio for AUC) (400 mg Q12h, median): 1.21
- RCmax (accumulation ratio for Cmax) (400 mg Q12h, median): 1.19
- Plasma t1/2 (400 mg Q12h oral, day 1, median (minimum, maximum)): 3.6 (2.9, 4.3) h
- Plasma t1/2,ss (400 mg Q12h oral, day 10, median (minimum, maximum)): 5.0 (3.4, 7.7) h
- CL/F,ss [3]: 149 L/h
- Plasma Cmin,ss [3]: 160 ng/mL
- CL/F,ss (600 mg Q12h, day 10, median): 162 L/h
- Plasma Cmin,ss (600 mg Q12h, day 10, median): 161 ng/mL
- RAUC (accumulation ratio for AUC) (600 mg Q12h, geometric mean): 1.13
- RCmax (accumulation ratio for Cmax) (600 mg Q12h, geometric mean): 1.12
- RAUC (accumulation ratio for AUC) (600 mg Q12h, median): 1.15
- RCmax (accumulation ratio for Cmax) (600 mg Q12h, median): 1.05
- Plasma t1/2 (600 mg Q12h oral, day 1, median (minimum, maximum)): 2.9 (2.6, 4.0) h
- systemic uptake after oral dosing (200 to 600 mg twice daily): limited but detectable systemic uptake
- dose proportionality of plasma exposure (200 to 600 mg, day 1 and day 10): less than dose proportional
- accumulation in plasma following multiple twice-daily dosing (10 days twice daily, trough concentration profiles): minimal accumulation; also recorded: essentially no accumulation
- power model slope (β) estimates for AUC and Cmax (day 1 and day 10, 200 to 600 mg): well below one
- increase of geometric mean AUC0–12 with a 3-fold increase in dose (first dose, 200 mg to 600 mg): approximately 2.3 fold
- increase of geometric mean Cmax with a 3-fold increase in dose (first dose, 200 mg to 600 mg): ~1.9 fold
- half-life (oral, 200 mg, 200 mg Q12h, day 1, geometric mean, read-out: Plasma t1/2 (converted)): 3.01 h
- Cmax (oral, 200 mg, 200 mg Q12h, day 1, median, read-out: Plasma Cmax): 342 ng/mL
- half-life (oral, 200 mg, 200 mg Q12h, day 10, geometric mean, read-out: Plasma t1/2,ss (converted)): 4.71 h
- Vd/F (oral, 200 mg, 200 mg Q12h, day 10, geometric mean): 591 L
- Cmax (oral, 200 mg, 200 mg Q12h, day 10, median, read-out: Plasma Cmax,ss): 492 ng/mL
- Vd/F (oral, 200 mg, 200 mg Q12h, day 10, median): 578 L
- half-life (oral, 400 mg, 400 mg Q12h, day 1, geometric mean, read-out: Plasma t1/2 (converted)): 3.53 h
- Cmax (oral, 400 mg, 400 mg Q12h, day 1, median, read-out: Plasma Cmax): 504 ng/mL
- half-life (oral, 400 mg, 400 mg Q12h, day 10, geometric mean, read-out: Plasma t1/2,ss (converted)): 5.19 h
- Vd/F (oral, 400 mg, 400 mg Q12h, day 10, geometric mean): 937 L
- Cmax (oral, 400 mg, 400 mg Q12h, day 10, median, read-out: Plasma Cmax,ss): 603 ng/mL
- Vd/F (oral, 400 mg, 400 mg Q12h, day 10, median): 917 L
- half-life (oral, 600 mg, 600 mg Q12h, day 1, geometric mean, read-out: Plasma t1/2 (converted)): 3.04 h
- Cmax (oral, 600 mg, 600 mg Q12h, day 1, median, read-out: Plasma Cmax): 642 ng/mL
- half-life (oral, 600 mg, 600 mg Q12h, day 10, geometric mean, read-out: Plasma t1/2,ss (converted)): 6.32 h
- Vd/F (oral, 600 mg, 600 mg Q12h, day 10, geometric mean): 1400 L
- Cmax (oral, 600 mg, 600 mg Q12h, day 10, median, read-out: Plasma Cmax,ss): 674 ng/mL
- Vd/F (oral, 600 mg, 600 mg Q12h, day 10, median): 1410 L
- Tmax (oral, 600 mg, after first dose, day 1, range across the 3 dose groups (200, 400, 600 mg), read-out: median time to maximum concentration (Tmax)): 7200 to 10800 s
- half-life (oral, after 10 days twice-daily, range across the three dose groups, read-out: geometric mean t1/2,ss): 5 to 6 h
- Tmax (oral, after 10 days twice-daily, range across the three dose groups, read-out: median Tmax at steady state (Tmax,ss)): 3600 to 7200 s
- half-life (oral, after first dose, day 1, range across the 3 dose groups, read-out: geometric mean half-life (t1/2)): 3 to 4 h
- AUC(0-t) (oral, 200 mg Q12h, day 1, median, read-out: Plasma AUC(0-12)): 1230 ng·h/mL
- AUC (oral, 200 mg Q12h, day 10, median, read-out: Plasma AUC(0-tau)): 2470 ng·h/mL
- AUC(0-t) (oral, 400 mg Q12h, day 1, median, read-out: Plasma AUC(0-12)): 2510 ng·h/mL
- AUC (oral, 400 mg Q12h, day 10, median, read-out: Plasma AUC(0-tau)): 3310 ng·h/mL
- AUC(0-t) (oral, 600 mg Q12h, day 1, median, read-out: Plasma AUC(0-12)): 3630 ng·h/mL
- AUC (oral, 600 mg Q12h, day 10, median, read-out: Plasma AUC(0-tau)): 3740 ng·h/mL
- Cmax (po, 200 mg, 200 mg Q12h oral, day 1, geometric mean (%CV), read-out: Plasma Cmax): 352 ng/mL
- Tmax (po, 200 mg, 200 mg Q12h oral, day 1, median (minimum, maximum), read-out: Plasma Tmax): 7200 s
- half-life (po, 200 mg, 200 mg Q12h oral, day 1, median (minimum, maximum), read-out: Plasma t1/2 (converted)): 2.96 h
- Cmax (po, 200 mg, 200 mg Q12h oral, day 10, geometric mean (%CV), read-out: Plasma Cmax,ss): 470 ng/mL
- Tmax (po, 200 mg, 200 mg Q12h oral, day 10, median (minimum, maximum), read-out: Plasma Tmax,ss): 5400 s
- half-life (po, 200 mg, 200 mg Q12h oral, day 10, median (minimum, maximum), read-out: Plasma t1/2,ss (converted)): 4.59 h
- Cmax (po, 400 mg, 400 mg Q12h oral, day 1, geometric mean (%CV), read-out: Plasma Cmax): 507 ng/mL
- Tmax (po, 400 mg, 400 mg Q12h oral, day 1, median (minimum, maximum), read-out: Plasma Tmax): 10800 s
- half-life (po, 400 mg, 400 mg Q12h oral, day 1, median (minimum, maximum), read-out: Plasma t1/2 (converted)): 3.61 h
- Cmax (po, 400 mg, 400 mg Q12h oral, day 10, geometric mean (%CV), read-out: Plasma Cmax,ss): 615 ng/mL
- Tmax (po, 400 mg, 400 mg Q12h oral, day 10, median (minimum, maximum), read-out: Plasma Tmax,ss): 7200 s
- half-life (po, 400 mg, 400 mg Q12h oral, day 10, median (minimum, maximum), read-out: Plasma t1/2,ss (converted)): 5.01 h
- Cmax (po, 600 mg, 600 mg Q12h oral, day 1, geometric mean (%CV), read-out: Plasma Cmax): 654 ng/mL
- Tmax (po, 600 mg, 600 mg Q12h oral, day 1, median (minimum, maximum), read-out: Plasma Tmax): 7200 s
- half-life (po, 600 mg, 600 mg Q12h oral, day 1, median (minimum, maximum), read-out: Plasma t1/2 (converted)): 2.85 h
- Cmax (po, 600 mg, 600 mg Q12h oral, day 10, geometric mean (%CV), read-out: Plasma Cmax,ss): 731 ng/mL
- Tmax (po, 600 mg, 600 mg Q12h oral, day 10, median (minimum, maximum), read-out: Plasma Tmax,ss): 3600 s
- half-life (po, 600 mg, 600 mg Q12h oral, day 10, median (minimum, maximum), read-out: Plasma t1/2,ss (converted)): 6.1 h
- AUC(0-t) (200 mg Q12h oral, day 1, geometric mean (%CV), read-out: Plasma AUC (AUC0–12)): 1550 ng·h/mL
- AUC (200 mg Q12h oral, day 10, geometric mean (%CV), read-out: Plasma AUC (AUC0–tau)): 2500 ng·h/mL
- AUC(0-t) (400 mg Q12h oral, day 1, geometric mean (%CV), read-out: Plasma AUC (AUC0–12)): 2340 ng·h/mL
- AUC (400 mg Q12h oral, day 10, geometric mean (%CV), read-out: Plasma AUC (AUC0–tau)): 3200 ng·h/mL
- AUC(0-t) (600 mg Q12h oral, day 1, geometric mean (%CV), read-out: Plasma AUC (AUC0–12)): 3560 ng·h/mL
- AUC (600 mg Q12h oral, day 10, geometric mean (%CV), read-out: Plasma AUC (AUC0–tau)): 4030 ng·h/mL
